Results taken from the NIST ThermoML archive (doi:10.1016/j.fluid.2015.02.018).
Numbers after ± are expanded uncertainties.

How the values were obtained:
[1] = DTA; for Normal melting temperature: Crystal
[2] = Molar enthalpy of transition or fusion; conditions: Crystal; DSC

| Compound | Normal melting temperature [1] | Molar enthalpy of transition or fusion [2] | Glass transition temperature ([1]; Glass) |
| --- | --- | --- | --- |
| COc1ccc2c(c1)c(CC(=O)O)c(C)n2C(=O)c1ccc(Cl)cc1 | 160.5 ± 0.4 °C | 18 ± 0.359 kcal/mol | – |
| CN1[C@@H](CC(=O)c2ccccc2)CCC[C@H]1C[C@H](O)c1ccccc1.Cl [(-)-lobeline hydrochloride] | 193.2 ± 0.4 °C | 18.2 ± 0.382 kcal/mol | – |
| Cn1c(=O)c2[nH]cnc2n(C)c1=O.Cn1c(=O)c2[nH]cnc2n(C)c1=O.NCCN [aminophylline] | 269.1 ± 0.4 °C | 6.19 ± 0.143 kcal/mol | – |
| OCCN1CCN(CCCN2c3ccccc3Sc3ccc(Cl)cc32)CC1 [perphenazine] | 93.7 ± 0.4 °C | 10.8 ± 0.239 kcal/mol | 18.7 ± 0.4 °C |
